Laboratory results from patent US20180327719A1, “METHOD FOR PRODUCING PANCREATIC BUD CELLS” (Kyoto University, priority 2015, published 2018).

Tests used:
Type in all cases: cell-based, human
[1] = system: PDX1+/NKX6.1− cells derived from iPS cell line (585A1); test: Cell number count after Stage 3 culture with AT7867; details: 0.01 μM to 50 μM AT7867, 4 days, versus DMSO negative control (FIG. 2)
Procedure: (§1) The medium in the cell culture obtained in Stage 2-3 was changed to Improved MEM Zinc Option medium (15×10^4/ml) supplemented with 100 ng/ml KGF, 0.2 μM LDN193189, 50 ng/ml EGF (R&D systems, Inc.), indicated concentrations (0.01 μM to 50 μM) of AT7867 (Selleck Chemicals), 1% B-27 (DMSO as negative control) and the cells were further cultured for 4 days.

PDX1+ cells = test: Immunostaining with anti-PDX1 and anti-Ki67 antibodies in Stage 3; details: 1 μM AT7867, 1 to 4 days after addition in Stage 3 (FIG. 3)
Procedure: as §1

PDX1+/NKX6.1+ cells = test: Double staining with anti-PDX1 and anti-NKX6.1 antibodies (flow cytometry) after Stage 3; details: addition of AT7867, after Stage 3 (FIGS. 5A and B)
Procedure: as §1

[2] = system: PDX1, PTF1A, and NKX6.1 genes; test: Quantitative PCR of PDX1, PTF1A and NKX6.1 gene expression during Stage 3; details: 1 μM AT7867, Day 0 to Day 4 of Stage 3, standardized with GAPDH, versus DMSO (FIG. 6)
Procedure: In Stage the cells were cultured in the presence of 1 μM AT7867. Cells were collected every day from Day 0 to Day 4 in Stage 3 and expression of PDX1, PTF1A, and NKX6.1 genes was measured by quantitative PCR. RNAs were extracted from the cells using RNeasy kit (Qiagen) and the reverse transcription reaction was performed with ReverTra Ace qPCR RT Master Mix (Toyobo) and oligo (dT) 20 primer. The quantitative PCR was performed with SYBR Premix Ex Taq II (Takara) using StepOnePlus™ Real-Time PCR System (Applied Biosystems). The gene expression was standardized with the expression of GAPDH gene and the relative gene expression was calculated from the relative standard curve (FIG. 6). […] PTF1A and NKX6.1 are transcription factors that indicate the differentiation of the cells into pancreatic bud cells

NKX6.1+ cells = test: Immunostaining with anti-NKX6.1 antibody after Stage 3; details: indicated concentrations of AT7867, after Stage 3 (FIG. 4A, 4B)
Procedure: as §1

With Clc1ccc(C2(c3ccc(-c4cn[nH]c4)cc3)CCNCC2)cc1 [AT7867] the “number of cells obtained in Stage 3” value [1] was “increased in a manner dependent on the concentration of AT7867”, the “PDX1 status of proliferated (Ki67+) cells” value (PDX1+ cells) was “proliferated cells were positive for at least PDX1” and the “PDX1+/NKX6.1+ cells” value (PDX1+/NKX6.1+ cells) was “increased by the addition of AT7867”. For the same compound, the “expression of NKX6.1” value [2] was “increased over time”, the “expression of PDX1” value [2] was “increased over time” and the “expression of PTF1A” value [2] was “increased over time”. For the same compound, the “cells positive for at least NKX6.1” value (NKX6.1+ cells) was “increased in a manner dependent on the concentration of AT7867”.
